Reference: patent US20090291908A1, “Use of thiophoshonoformic acid and nrtis to treat viral infections” (priority 2005, published 2009)

Tests used:
[1] = test system: panel of NRTI and NNRTI resistant HIV-1; experiment: PhenoSense reporter assay, panel of ten resistant viruses; type: cell-based; details: FIG. 2; for susceptibility of the resistant virus panel: all viruses of the panel
From the text: Antiviral activity also can be quantitatively measured using a PhenoSense™ assay. A PhenoSense™ assay uses nucleic acid amplification to derive HIV protease and reverse transcriptase nucleic acid sequences from plasma. The patient-derived sequences are incorporated into a viral vector to construct a resistance test vector (RTV). The viral vector also contains an indicator or reporter gene (e.g., green fluorescent protein, luciferase, beta galactosidase, etc.) inserted within a deleted portion of the HIV envelope gene. The reporter gene is under the control of a strong promoter (e.g., a CMV promoter) in the RTV.
The PhenoSense™ assay is performed by introducing the RTV nucleic acid sequence into host cells, collecting virus particles after transfection, and using the virus particles to infect target cells. Drug susceptibility is measured by comparing reporter gene activity produced in the presence and absence of drugs. The presence of drug can be one or more different concentrations, for example, several titrated concentrations.
The data are analyzed by plotting the percent inhibition of viral replication, as measured by reporter gene activity, against the log10 concentration of drug for the patient virus (in the RTV) and a drug sensitive reference virus. The resulting drug susceptibility curve is used to calculate the concentration of drug required to inhibit viral replication by 50% (IC50). A shift in the patient inhibition curve toward a higher drug concentration as compared to the curve of the drug-sensitive reference virus is interpreted as reduced drug susceptibility. A shift in the patient inhibition curve toward a lower drug concentration as compared to the curve of the drug-sensitive reference virus is interpreted as increased drug susceptibility. PhenoSense™ can be conducted by a commercial service provider, for example, Monogram Biosciences, South San Francisco, Calif.
All Phenosense™ assays were performed at Virologic, Inc as described (Petropoulos, et al. (2000) Antimicrob Agents Chemother 44:920). Briefly, the envelope gene is deleted from wild type HIV-1 and luciferase reporter inserted under control of a strong CMV promoter. Viral stocks are produced by co-transfection of producer cells with the recombinant viral DNA and a vector that expresses envelope protein from an amphotropic murine leukemia virus. Pseudotyped viral particles are replication defective and only undergo one round of infection. Expression of the luciferase gene in target cells is dependent on a single round of infection.
The activity of Thiovir™ was evaluated against viruses that are resistant to common NRTI and NNRTI drugs using the Phenosense™ reporter system (Petropoulos, supra). […]

HIV in H9 T-cells = type: cell-based; details: p24 assay; combined with tenofovir at a ratio of 1:1
Experimental: Reduction in viral titer also can be measured using an ELISA capture assay with antibodies specific for viral capsid proteins (e.g., HIV-1 p24).
H9 T-cells were pretreated with polybrene at 4 μg/ml and drug at indicated concentrations in RPMI plus 10% fetal calf serum for 30 minutes prior to adsorption of virus at multiplicities of infection (MOI) 0.1 for 2 hours at 37° C., 5% CO2. Cells were washed 3 times with PBS and resuspended in fresh media plus drug. Incubation at 37° C., 5% CO2 was continued for 4-6 days and cells centrifuged at 1200 rpm. Supernatants were removed and p24 detected by quantitative antigen capture kit (Zeptometrix, Buffalo, N.Y.).

[2] = test system: Foscarnet resistant HIVLAI, selection 1 (L214F, R172K); experiment: IC50 by MAGI assay on selected resistant virus; type: cell-based, HIV-1; details: Drug Resistant Virus: Foscarnet (Selection # 1)
Experimental: (§1) Thiovir™ and foscarnet resistant viruses were selected by in vitro passage of HIVLAI on H9 cells in the presence of escalating concentrations of drug. Resistant virus was evaluated for phenotypic changes by IC50 determination using the MAGI assay. Furthermore, the viral DNA was sequenced to determine genotypic variations (Table 4). Two independent 13 to 15 round selections were performed.

[3] = test system: Foscarnet resistant HIVLAI, selection 2 (L214F, M184I); experiment: IC50 by MAGI assay on selected resistant virus; type: cell-based, HIV-1; details: Drug Resistant Virus: Foscarnet (Selection # 2)
Experimental: as §1

[4] = test system: Thiovir™ resistant HIVLAI, selection 1 (L214F, R172K, Q174R); experiment: IC50 by MAGI assay on selected resistant virus; type: cell-based, HIV-1; details: for Susceptibility Index (IC50 Resistant Virus/IC50 Purent Virus): Drug Resistant Virus: Thiovir ™ (Selection # 1), MAGI assay
Experimental: as §1

[5] = test system: Thiovir™ resistant HIVLAI, selection 2 (L214F, M184I); experiment: IC50 by MAGI assay on selected resistant virus; type: cell-based, HIV-1; details: for Susceptibility Index (IC50 Resistant Virus/IC50 Purent Virus): Drug Resistant Virus: Thiovir ™ (Selection # 2), MAGI assay
Experimental: as §1

[6] = test system: Thiovir™ and foscarnet selected virus; experiment: Susceptibility of selected viruses; type: cell-based, HIV-1; details: both Thiovir™ and foscarnet selected virus
Experimental: Wild type and antiviral drug resistant HIV were tested for sensitivity to anti-viral drugs using either MAGI assay or Phenosense™ assay. The 50% inhibitory concentration, IC50, was then determined from a plot of percent inhibition vs. log10 drug concentration.
MAGI cells were seeded at approximately 5×10^4 cells per well in a 12 well plate in DMEM with 10% fetal calf serum and incubated overnight at 37° C. in 5% CO2. Drug was added at various concentrations and incubated for approximately 30 to 60 minutes. Cells were infected with either HIV-1 HXB2 or HIV-1IIIB in the presence of either 4 microg/ml polybrene or 60 microg/ml dextran. Infection was continued for 48 hours and cells fixed using 0.05% glutaraldehyde. […] Blue nuclei were counted under a microscope at 100× magnification.
To select for drug resistant variants, 1×10^6H9 cells were pretreated for two hours at three concentrations of AZT (0.5, 1 and 2 μM), Nevirapine (0.5, 1 and 2 μM), foscarnet (25 and 50 μM) and Thiovir™ (25 and 50 μM) prior to infection at MOI of 0.1 of HIVIIIB or HIVLAI. […] Virus was passaged at increasing drug concentration and monitored for increase in IC50. […]
Thiovir™ and foscarnet resistant viruses were selected by in vitro passage of HIVLAI on H9 cells in the presence of escalating concentrations of drug. Resistant virus was evaluated for phenotypic changes by IC50 determination using the MAGI assay. […]

| Structure (SMILES) | susceptibility of the resistant virus panel [1] | susceptibility of the majority of the panel viruses [1] | drug interaction in words, combined with tenofovir (HIV in H9 T-cells) | Susceptibility Index (IC50 Resistant Virus/IC50 Purent Virus) [2] | Susceptibility Index (IC50 Resistant Virus/IC50 Purent Virus) [3] | Susceptibility Index (IC50 Resistant Virus/IC50 Purent Virus) [4] | Susceptibility Index (IC50 Resistant Virus/IC50 Purent Virus) [5] | susceptibility of selected virus in words [6] | resistance of selected virus ([4]; first Thiovir™ selected resistant virus) | resistance of selected virus ([5]; second Thiovir™ selected resistant virus) |
| --- | --- | --- | --- | --- | --- | --- | --- | --- | --- | --- |
| O=C(O)P(=O)(O)O [Foscarnet, phosphonoformic acid] | sensitive | hypersensitive | additive to antagonistic | 4.1 | 103 | 4.8 | 85 | – | – | – |
| Cc1ccnc2c1NC(=O)c1cccnc1N2C1CC1 [Nevirapine] | – | – | – | 1.06 | – | 1.05 | – | sensitive | – | – |
| O=C(O)P(O)(O)=S [Thiovir™, thiophosphonoformic acid] | sensitive | hypersensitive | synergy | 6.3 | 100 | 4.8 | 113 | – | 4.8 fold | 85 fold |
| Cc1cn([C@H]2C[C@H](N=[N+]=[N-])[C@@H](CO)O2)c(=O)[nH]c1=O [Zidovudine, Azidothymidine] | – | – | – | 0.87 | 0.58 | 0.22 | 0.35 | – | – | – |
